This is an account of results in patent publication US20250051338A1, “TYK2 DEGRADERS AND USES THEREOF” (Kymera Therapeutics, Inc., priority 2021, published 2025).

Holding throughout (type): cell-based
Test [1] deals with T1, TYK2 (Homo sapiens, UniProt P29597). The experiment in a line: TYK2 degradation MSD assay in EBV-B cells. Further details: endogenous in cells; host or cells: EBV-B cells. The following applies: 4 to 24 hours incubation, read-out: TYK2 MSD DC50 rating in EBV-B. As to the method: (§1) Example 3. TYK2 Degradation MSD Assay in EBV-B, OCI-LY10, and Human PBMC Cells
(§2) Degradation of TYK2 in cells was quantitatively measured using Meso Scale Discovery (MSD) technology. EBV-B, OCI-LY10 or human PBMC cells were seeded in 96-well plates with a density of 0.4 million cells per well in 100 μl fresh media. Compounds were then added to the assay plates with a final top concentration of 1 to 10 μM in a 1:3 dilution series with total of 9 doses. The assay plates were then incubated for 4 to 24 hours at 37° C. under 5% CO2. The assay plates were then centrifuged for 5 minutes, and the cell pellets were treated with 100 μl/well RIPA lysis buffer (Boston Bioproducts, BP-115D) with protease and phosphatase inhibitors (Roche, 05892791001 and 04906837001). To prepare MSD assay plates (MSD, L15XA), the plates were coated with the capture antibody (Santa Cruz Biotechnology, SC-5271) in PBS, at 40 μl/well. The plates were then incubated overnight at 4° C., washed 3 times with 150 μl/well TBST buffer (Cell Signaling Technology, 9997S) and blocked with 150 μl/well blocking buffer (MSD, R93BA-4). Cell lysates were then added to MSD assay plates and the plates were incubated at room temperature for 1 hour. The plates were then washed 3 times with 150 μl/well TBST buffer and 25 μl/well primary detection antibody (Cell Signaling Technology, #9312). The assay plates were then incubated at room temperature for 1 hour, washed 3 times with 150 μl/well TBST buffer, and 25 μl/well secondary detection antibody, SULFO-TAG anti-rabbit antibody (MSD, R32AB-1) were added. The assay plates were then incubated at room temperature for 1 hour, washed 3 times with 150 μl/well TBST buffer, and 150 μl/well MSD reading buffer (MSD, R92TC-2) were added. The plates were then analyzed by an MSD reader. The data was analyzed by GraphPad Prism and the dose dependent TYK2 degradation was fit using the four-parameter inhibitor vs. response nonlinear regression. The DC50 data were measured and categorized into different levels in Table H. The compound with DC50 less than or equal to 1 nM is marked as A, with DC50 more than 1 nM and less than or equal to 10 nM is marked as B, with DC50 more than 10 nM and less than or equal to 100 nM is marked as C, and with DC50 more than 100 nM or not available is marked as D.

Test [2] addresses T1, TYK2. Briefly: TYK2 degradation MSD assay in OCI-LY10 cells. Further details: endogenous in cells; host or cells: EBV-B cells. Particulars: 4 to 24 hours incubation, read-out: TYK2 MSD DC50 rating in OCI-LY10. The procedure:
as §1, §2

The target in test [3] is T1, TYK2. The experiment in a line: TYK2 degradation MSD assay in human PBMC cells. Set-up: endogenous in cells; host or cells: human PBMC. The following applies: 4 to 24 hours incubation, read-out: TYK2 MSD DC50 rating in human PBMC. As to the method: as §1, §2

T1 sequence (P29597 whole entry): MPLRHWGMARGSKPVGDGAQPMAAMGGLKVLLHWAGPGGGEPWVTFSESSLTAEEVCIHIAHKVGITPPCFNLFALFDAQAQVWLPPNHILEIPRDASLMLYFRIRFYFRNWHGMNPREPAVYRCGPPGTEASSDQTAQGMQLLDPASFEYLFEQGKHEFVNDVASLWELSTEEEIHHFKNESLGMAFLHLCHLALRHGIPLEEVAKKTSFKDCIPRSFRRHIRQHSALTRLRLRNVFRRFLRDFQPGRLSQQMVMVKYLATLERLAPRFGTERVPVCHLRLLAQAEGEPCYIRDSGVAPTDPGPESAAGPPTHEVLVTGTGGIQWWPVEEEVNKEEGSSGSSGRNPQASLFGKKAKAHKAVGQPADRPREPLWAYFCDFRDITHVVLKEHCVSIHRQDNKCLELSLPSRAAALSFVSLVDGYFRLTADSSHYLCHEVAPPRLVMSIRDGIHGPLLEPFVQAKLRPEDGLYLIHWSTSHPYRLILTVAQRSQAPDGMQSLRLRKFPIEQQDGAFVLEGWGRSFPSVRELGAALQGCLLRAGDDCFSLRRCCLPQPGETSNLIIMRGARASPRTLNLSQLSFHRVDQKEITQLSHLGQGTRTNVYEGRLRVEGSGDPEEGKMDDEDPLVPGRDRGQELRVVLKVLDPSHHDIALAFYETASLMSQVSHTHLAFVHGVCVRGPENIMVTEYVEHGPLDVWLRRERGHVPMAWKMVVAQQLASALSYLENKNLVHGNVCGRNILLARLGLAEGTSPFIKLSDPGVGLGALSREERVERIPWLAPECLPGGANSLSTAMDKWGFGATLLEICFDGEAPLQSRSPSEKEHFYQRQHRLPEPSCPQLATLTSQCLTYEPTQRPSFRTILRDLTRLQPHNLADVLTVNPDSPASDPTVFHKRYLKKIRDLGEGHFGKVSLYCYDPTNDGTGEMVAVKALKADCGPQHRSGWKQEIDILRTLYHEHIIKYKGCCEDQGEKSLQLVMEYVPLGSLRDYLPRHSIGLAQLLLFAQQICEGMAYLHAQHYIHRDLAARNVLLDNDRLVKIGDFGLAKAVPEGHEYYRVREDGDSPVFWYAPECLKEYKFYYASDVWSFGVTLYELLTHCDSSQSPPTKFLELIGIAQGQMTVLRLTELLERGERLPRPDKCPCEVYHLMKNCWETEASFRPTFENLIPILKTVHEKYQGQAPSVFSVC

In the case of `CNC(=O)c1cnc(Nc2ccc(CN3CCC4(CC3)CC(Cc3ccc5c(c3)n(C)c(=O)n5C3CCC(=O)NC3=O)C4)cn2)cc1Nc1cccc(-c2ncc(F)cn2)c1OC` (stereo not drawn) [Example K144], the DC50 in test [1] is less than 1 nM; in test [2], more than 100 nM; in test [3], less than 1 nM.

Regarding `CNC(=O)c1cnc(Nc2ccc(CN3CCCC4(C3)CN(c3ncc(C#Cc5ccc6c(c5)n(C)c(=O)n6C5CCC(=O)NC5=O)cn3)C4)cn2)cc1Nc1cccc(-c2ncc(F)cn2)c1OC` (stereo not drawn) [Example K145], the results for the DC50 in test [1], in test [2] and in test [3] were 1 to 10 nM, more than 100 nM and 1 to 10 nM, respectively.

Consider `CNC(=O)c1cnc(Nc2ccc(CN3CCC(CN4CCC(c5ccc6c(c5)n(C)c(=O)n6C5CCC(=O)NC5=O)CC4)CC3)cn2)cc1Nc1cccc(-c2ncc(F)cn2)c1OC` (stereo not drawn) [Example K146], for which the values for the DC50 in test [1], in test [2] and in test [3] were less than 1 nM, more than 100 nM and less than 1 nM, respectively.

As to `CNC(=O)c1cnc(Nc2ccc(CN3CCC(CN(C)c4ccc5c(c4)n(C)c(=O)n5C4CCC(=O)NC4=O)CC3)cn2)cc1Nc1cccc(-c2ncc(F)cn2)c1OC` (stereo not drawn) [Example K147], the results for the DC50 in test [1], in test [2] and in test [3] were less than 1 nM, more than 100 nM and 1 to 10 nM, respectively.

`CNC(=O)c1cnc(Nc2ccc(CN(C)CCCOC3CC(c4ccc5c(c4)n(C)c(=O)n5C4CCC(=O)NC4=O)C3)cn2)cc1Nc1cccc(-c2ncc(F)cn2)c1OC` (stereo not drawn) [Example K148]: the 50% degradation concentration (DC50) was less than 1 nM in test [1], more than 100 nM in test [2] and less than 1 nM in test [3].

In the case of `CNC(=O)c1cnc(Nc2ccc(CN3CC4(CCN(c5ccc6c(c5)n(C)c(=O)n6C5CCC(=O)NC5=O)CC4)C3)cn2)cc1Nc1cccc(-c2ncc(F)cn2)c1OC` (stereo not drawn) [Example K149], the DC50 in test [1] is less than 1 nM; in test [2], more than 100 nM; in test [3], more than 100 nM.

As to `CNC(=O)c1cnc(Nc2ccc(CN3CC4(CCN(c5cccc6c5n(C)c(=O)n6C5CCC(=O)NC5=O)CC4)C3)cn2)cc1Nc1cccc(-c2ncc(F)cn2)c1OC` (stereo not drawn) [Example K150], the DC50 in test [1] was less than 1 nM; in test [2] it was more than 100 nM; in test [3], less than 1 nM.

On to `CNC(=O)c1cnc(Nc2ccc(CN3CCC(OCC#Cc4cccc5c4n(C)c(=O)n5C4CCC(=O)NC4=O)CC3)cn2)cc1Nc1cccc(-c2ncc(F)cn2)c1OC` (stereo not drawn) [Example K151], for which the DC50 is less than 1 nM in test [1], more than 100 nM in test [2] and more than 100 nM in test [3].

Take `CCNC(=O)c1cnc(Nc2ccc(C(=O)N(C)C3CCN(c4ccc5c(c4)n(C)c(=O)n5C4CCC(=O)NC4=O)CC3)cn2)cc1Nc1cccc(-c2ncc(F)cn2)c1OC` (stereo not drawn) [Example K152]: the values for the 50% degradation concentration (DC50) in test [1], in test [2] and in test [3] were 1 to 10 nM, more than 100 nM and more than 100 nM, respectively.

`CNC(=O)c1cnc(Nc2ccc(CN(C)C3CN(c4ccc5c(c4)n(C)c(=O)n5C4CCC(=O)NC4=O)C3)cn2)cc1Nc1cccc(-c2ncc(F)cn2)c1OC` (stereo not drawn) [Example K153]: the DC50 in test [1] was more than 100 nM; in test [2], less than 1 nM; in test [3], less than 1 nM.

Consider `CNC(=O)c1cnc(Nc2ccc(CN(C)C3CN(c4cccc5c4n(C)c(=O)n5C4CCC(=O)NC4=O)C3)cn2)cc1Nc1cccc(-c2ncc(F)cn2)c1OC` (stereo not drawn) [Example K154], for which the values for the DC50 in test [1], in test [2] and in test [3] were more than 100 nM, less than 1 nM and less than 1 nM, respectively.

Take `CNC(=O)c1cnc(Nc2ccc(CN(C)C3CCN(c4ccc5c(c4)n(C)c(=O)n5C4CCC(=O)NC4=O)CC3)cn2)cc1Nc1cccc(-c2ncc(F)cn2)c1OC` (stereo not drawn) [Example K155]: the DC50 in test [1] was less than 1 nM; in test [2], more than 100 nM; in test [3], less than 1 nM.

As for `CNC(=O)c1cnc(Nc2ccc(CN3CCCC(c4cccc5c4n(C)c(=O)n5C4CCC(=O)NC4=O)C3)cn2)cc1Nc1cccc(-c2ncc(F)cn2)c1OC` (stereo not drawn) [Example K156], the DC50 in test [1], in test [2] and in test [3] was more than 100 nM in each case.

Consider `CNC(=O)c1cnc(Nc2ccc(CN(C)CCCOC3CCN(c4ccc5c(c4)n(C)c(=O)n5C4CCC(=O)NC4=O)CC3)cn2)cc1Nc1cccc(-c2ncc(F)cn2)c1OC` (stereo not drawn) [Example K157], for which the DC50 in test [1] was less than 1 nM; in test [2], more than 100 nM; in test [3], more than 100 nM.

For `CNC(=O)c1cnc(Nc2ccc(CN(C)CCCOC3CC(c4cccc5c4n(C)c(=O)n5C4CCC(=O)NC4=O)C3)cn2)cc1Nc1cccc(-c2ncc(F)cn2)c1OC` (stereo not drawn) [Example K158], the figures for the DC50 in test [1], in test [2] and in test [3] were less than 1 nM, more than 100 nM and more than 100 nM, respectively.

As to `CNC(=O)c1cnc(Nc2ccc(CN3CCC(OC4CC(c5ccc6c(c5)n(C)c(=O)n6C5CCC(=O)NC5=O)C4)CC3)cn2)cc1Nc1cccc(-c2ncc(F)cn2)c1OC` (stereo not drawn) [Example K159], the DC50 in test [1] was less than 1 nM; in test [2] it was more than 100 nM; in test [3], more than 100 nM.

On to `CNC(=O)c1cnc(Nc2ccc(CN(C)C3CCCN(c4ccc5c(c4)n(C)c(=O)n5C4CCC(=O)NC4=O)C3)cn2)cc1Nc1cccc(-c2ncc(F)cn2)c1OC` (stereo not drawn) [Example K160], for which the DC50 in test [1] was less than 1 nM; in test [2], more than 100 nM; in test [3], more than 100 nM.

Regarding `CNC(=O)c1cnc(Nc2ccc(CN3CC(N(C)c4cccc5c4n(C)c(=O)n5C4CCC(=O)NC4=O)C3)cn2)cc1Nc1cccc(-c2ncc(F)cn2)c1OC` (stereo not drawn) [Example K161], the 50% degradation concentration (DC50) in test [1] is 1 to 10 nM; in test [2], more than 100 nM; in test [3], more than 100 nM.

As to `CNC(=O)c1cnc(Nc2ccc(CN(C)C3CCCN(c4cccc5c4n(C)c(=O)n5C4CCC(=O)NC4=O)C3)cn2)cc1Nc1cccc(-c2ncc(F)cn2)c1OC` (stereo not drawn) [Example K162], the figures for the DC50 in test [1], in test [2] and in test [3] were 1 to 10 nM, more than 100 nM and more than 100 nM, respectively.

In the case of `CNC(=O)c1cnc(Nc2ccc(CN3CC(N(C)c4ccc5c(c4)n(C)c(=O)n5C4CCC(=O)NC4=O)C3)cn2)cc1Nc1cccc(-c2ncc(F)cn2)c1OC` (stereo not drawn) [Example K163], the DC50 in test [1], in test [2] and in test [3] was more than 100 nM throughout.

`CNC(=O)c1cnc(Nc2ccc(CN3CCC(N(C)c4ccc5c(c4)n(C)c(=O)n5C4CCC(=O)NC4=O)C3)cn2)cc1Nc1cccc(-c2ncc(F)cn2)c1OC` (stereo not drawn) [Example K164]: the DC50 was less than 1 nM in test [1], more than 100 nM in test [2] and more than 100 nM in test [3].

With `CNC(=O)c1cnc(Nc2ccc(CN3CCC(c4cccc5c4n(C)c(=O)n5C4CCC(=O)NC4=O)C3)cn2)cc1Nc1cccc(-c2ncc(F)cn2)c1OC` (stereo not drawn) [Example K165], the figures for the DC50 in test [1], in test [2] and in test [3] were 1 to 10 nM, more than 100 nM and more than 100 nM, respectively.

As to `CNC(=O)c1cnc(Nc2ccc(CN3CCC(c4ccc5c(c4)n(C)c(=O)n5C4CCC(=O)NC4=O)C3)cn2)cc1Nc1cccc(-c2ncc(F)cn2)c1OC` (stereo not drawn) [Example K166], the DC50 was less than 1 nM in test [1], more than 100 nM in test [2] and more than 100 nM in test [3].

Turning to `CNC(=O)c1cnc(Nc2ccc(CN3CCC(c4cccc5c4n(C)c(=O)n5C4CCC(=O)NC4=O)CC3)cn2)cc1Nc1cccc(-c2ncc(F)cn2)c1OC` (stereo not drawn) [Example K167], the DC50 in test [1] was less than 1 nM; in test [2], more than 100 nM; in test [3], more than 100 nM.

With `CNC(=O)c1cnc(Nc2ccc(CN3CCCC(c4ccc5c(c4)n(C)c(=O)n5C4CCC(=O)NC4=O)C3)cn2)cc1Nc1cccc(-c2ncc(F)cn2)c1OC` (stereo not drawn) [Example K168], the DC50 in test [1], in test [2] and in test [3] was more than 100 nM in each case.

One may read the DC50 as the midpoint of the concentration-degradation curve.
